From patent publication US20130323753A1, “METHODS AND KITS FOR IDENTIFICATION OF ANTI-EXCITOTOXIC COMPOUNDS” (RUTGERS, THE STATE UNIVERSITY OF NEW JERSEY, priority 2007, published 2013)
Entries after “also recorded” stand apart in the source; their conditions may differ.

Key:
spinal cord neurons = test: Neuron survival (MAP-2+ count) in mixed spinal cord cultures grown in SCM, glutamate toxicity; assay type: cell-based, rat; details: for glutamate-elicited neuronal cell death, dose dependence: various concentrations of glutamate
Procedure: Spinal cords were dissected from embryonic day 16 (E16) rat embryos. Meninges were removed, and the cords were dissociated with gentle trituration. Cells were plated at a density of 350 neurons/mm^2.
(§1) When cells were treated with glutamate, the medium was replaced with solutions of glutamate in Locke's buffer, with or without UA, for 1 hour at 37° C. In control cultures, the medium was replaced with Locke's buffer. After 1 hour, glutamate solutions were changed to SCM or NB and UA was added at the same concentration. In all cases, same amount of Locke's buffer was added to control as vehicle. When the cultures were treated with Sin-1, the drug was added directly to the medium with or without UA, and the same amount of PBS and Locke's buffer were added to control as vehicle. In all cases, cells were incubated for another 24 hours at 37° C. before being fixed or harvested.
(§2) Cells were fixed with 4% paraformaldehyde for 30 minutes at room temperature. After washing with PBS, the cultures were incubated with anti-MAP-2 (1:500), anti-GFAP (1:1000), anti-CNPase (1:500), anti-vimentin (1:1000) or anti-CD11 (1:500) for 2 hours at room temperature. Positive cells were then visualized with Cy2 anti-mouse secondary antibodies.
(§3) For each well, pictures were taken for 10 random fields at a magnification of 100×. Cell number (as indicated by the appropriate immunostain) in each of the 10 pictures was counted by an experimenter blind to the condition. Cell numbers in control and treated groups were compared with one-way analysis of variance (ANOVA) using the Instat software program (Graph Pad).
Glutamate is the major physiological agent that mediates cell death after spinal cord injury. To examine the survival of spinal cord neurons in an in vitro model of SCI, mixed cell cultures derived from embryonic 16 (E16) rat spinal cords were treated with a range of concentrations of glutamate. These cells were grown in serum-containing medium (SCM) for 6 days (DIV 6) before being treated with various concentrations of glutamate for 1 hour. The brief exposure to high levels of glutamate mimics its temporary up-regulation after SCI. After glutamate was removed, cells were kept in SCM for another 24 hours before the cultures were fixed and immunostained. The numbers of surviving neurons were monitored with immunohistochemical labeling of MAP-2, a marker for neurons.
To determine whether UA can be used to prevent glutamate toxicity, initial experiments monitored the effects of UA on spinal cord neuron survival during basal conditions. DIV 6 cultures were treated with different concentrations of UA for 24 hours before being fixed and immunostained, and the numbers of neurons were counted. […] The results were derived from 2 independent experiments (n=6).
Further experiments were designed to reveal if UA could reduce neuronal cell death after glutamate exposure. Cells were treated with 500 μM glutamate with or without various concentrations of UA. UA was applied with glutamate and the same concentration of UA was added after the removal of glutamate. […] With high concentrations of UA, glutamate-promoted neuronal cell death was abolished (FIG. 3B). The results were derived from 6 independent experiments (n=12).

[1] = tested on: pure spinal cord neuron cultures; test: Sin-1 (peroxynitrite donor) toxicity in pure spinal cord neuron cultures; assay type: cell-based, rat; details: Sin-1 250 μM 1-hr
Procedure: (§4) To grow pure spinal neuron cultures, SCM was changed to Neurobasal medium (NB; Neurobasal medium (Gibco) supplemented with B-27, penicillin, and streptomycin) at 24 hours after plating. After an additional 24 hours, cytosine arabinoside (Ara-C, 5 μM) was added to these cultures for 3 days after which the Ara-C containing media was changed to fresh NB media. Cells were treated 24 hours later.
THA was dissolved in PBS.
as §1
Results were derived from 2 independent experiments (n=6). ***p<0.001 by parametric ANOVA followed by Bonferroni Multiple Comparisons Test.

EAAT-1 = test: Western blot of EAAT-1 protein in mixed spinal cord cultures; assay type: cell-based, rat
Procedure: (§5) At DIV 7, control and treated mixed spinal cord cultures grown on 35 mm dishes were scraped and protein was harvested in TEEN (25 mM Tris-HCl, pH 7.4, 1 mM EDTA, 1 mM EGTA, 100 mM NaCl) supplemented with 1 mM phenylmethylsulfonyl fluoride (PMSF). Proteins were resolved on 10% SDS-polyacrylamide gels and transferred to PVDF membranes.
(§6) After blocking with 3% bovine serum albumin (BSA), the membrane was incubated with primary antibodies: anti-EAAT-1 (goat polyclonal antibody from Santa Cruz Inc., 1:500) overnight at 4° C.; anti-EAAT-2 (goat polyclonal antibody from Santa Cruz Inc., 1:500) overnight at 4° C.; or anti-actin (mouse monoclonal antibody from Sigma-Aldrich, 1:2000) for 1 hour at room temperature (RT). After washing, the secondary antibody, horseradish peroxidase linked IgG (anti-goat for EAAT-1 and EAAT-2, anti-mouse for actin), was applied at 1:2000 for one hour at RT. The bands were visualized using the enhanced chemiluminescence (ECL) system (Amersham Biosci.).
(§7) The results of the Western blot experiments were analyzed with Universal Hood Gel Documentation Systems and Quantity One V4.2.1 software (BIO-RAD).
(§8) Additional studies examined whether UA affects protein expression of EAAT-1 and EAAT-2. […]

[2] = tested on: spinal cord neurons co-cultured with astroglia; test: Astroglia re-plated onto pure spinal cord neuron cultures, glutamate toxicity; assay type: cell-based, rat; details: glutamate 50 μM 1 hour, then 100 μM UA
Procedure: Spinal cord astroglial cultures were derived from postnatal day 1 rats using a modified approach from MaCarthy and de Vellis (McCarthy and deVellis 1980). Spinal cords were dissected and dissociated with trituration. Cells were plated in tissue culture flasks at density of 1000 cells/mm^2. Cultures were grown in NM-15 medium (84.4% MEM, 15% Fetal Bovine Serum, 0.6% glucose, supplemented with penicillin and streptomycin) for 9 days. Medium was changed every 3 days. The flasks were then shaken at 400×rpm for 20 minutes before the medium was changed and the floating cells (mostly microglia) were washed away. The flasks were again shaken overnight at 250×rpm to remove attached oligodendrocytes and remaining microglia. Following shaking, floating cells were washed away and medium was changed. Ara-C was added to final concentration of 10 μM to reduce the number of undifferentiated cells. Cultures were grown for 3 additional days before being trypsinized and re-plated at a density of 500 cells/mm^2 in SCM. These cultures only contain GFAP+ and vimentin+ astroglia. Staining for MAP-2 and CNPase were negative.
To determine the contribution of direct astroglial cell presence to the neuroprotective effects of UA, astroglial cultures were grown for 5 days in SCM before the cells were trypsinized and plated onto pure spinal cord neuron cultures grown for 5 days in vitro (DIV 5). […]

EAAT-2 = test: Western blot of EAAT-2 protein in mixed spinal cord cultures; assay type: cell-based, rat; details: UA 100 μM 24 hours, glutamate, or glutamate and UA
Procedure: as §5, §6, §7, §8

[3] = tested on: pure spinal cord neuron cultures; test: Neuron survival (MAP-2+ count) in pure spinal cord neuron cultures, glutamate toxicity; assay type: cell-based, rat; details: for neuron loss: 1 hour
Procedure: as §4, §1, §2, §3
To address this question, pure spinal cord neuron cultures were established. Twenty four hours after plating in SCM, SCM was changed to NB medium, which optimizes neuronal growth. Ara-C (5 μM) was added to the cultures after another 24 hours to eliminate the glial populations. The medium was changed after 3 days, and cells were treated 24 hours later. This procedure eliminated non-neuronal cell types in the cultures with only neurons surviving.
To determine the sensitivity of pure neuronal and mixed cultures to glutamate, pure spinal cord neuron cultures were established, and after 6 days, these cells were treated with glutamate for 1 hour. Cells were fixed after 24 hours and stained with anti-MAP-2 antibody. (A) Control cultures and cells treated with 2, 10, and 500 μM glutamate are illustrated. […] Results were derived from 3 independent experiments (n=7). ***p<0.001 by nonparametric ANOVA followed by Dunn's analysis comparing glutamate treated groups with control. Scale bar, 50 μm.
To examine whether UA can directly reduce glutamate toxicity in pure neuronal cultures, cells were treated with or without various concentrations of UA either concurrent with or at the termination of exposure to 10 μM glutamate. More specifically, six days after plating, pure spinal cord neuron cultures were treated with glutamate (10 or 500 μM) for 1 hour. UA (100 or 200 μM) was added with and after glutamate treatments. Cells were fixed after 24 hours and numbers of neurons that survived (MAP-2+) were counted. Results shown in FIG. 6 were derived from 2 independent experiments (n=6). ***p<0.001 by nonparametric ANOVA followed by Dunn's analysis for multiple comparisons comparing treated groups with control.

[4] = at normal human levels; cited from earlier work
spinal cord injury = details: pre-treatment and concurrent treatment with UA; cited from earlier work
[5] = tested on: mouse spinal cord neuron cultures; details: mouse spinal cord neuron cultures treated with UA; cited from earlier work

## O=c1[nH]c(=O)c2[nH]c(=O)[nH]c2[nH]1 [UA, uric acid]
Spinal cord neurons; 100 μM UA, cultures grown in SCM
  cell loss elicited by glutamate at 100 μM UA: reversed the cell loss
Spinal cord neurons; 500 μM glutamate 1 hour, various concentrations of UA, mixed cultures
  effect on glutamate toxicity, UA added with and after glutamate: blocked glutamate toxicity in a dose-dependent manner
Spinal cord neurons; 500 μM glutamate, high concentrations of UA added with and after glutamate, mixed cultures
  glutamate-promoted neuronal cell death at high concentrations of UA: abolished
Spinal cord neurons; UA different concentrations, 24 hours, DIV 6 mixed cultures, no glutamate
  effect on survival of spinal cord neurons during basal conditions: no effect on the survival of spinal cord neurons; also recorded: does not affect survival of spinal cord neurons
[1]; UA 100 μM added after
  toxicity elicited by Sin-1, UA added after Sin-1: did not elicit a reversal of toxicity
[1]; UA 100 μM concurrent
  toxicity elicited by Sin-1, UA concurrently present: significantly reversed; also recorded: reduces damages elicited by Sin-1 treatment
EAAT-1; UA 100 μM, 24 hours, mixed cultures DIV 6
  EAAT-1 protein expression normalized to actin: upregulated
EAAT-1; glutamate 500 μM 1 hour, then UA 100 μM
  EAAT-1 protein expression, glutamate prior to UA: did not influence UA actions in increasing EAAT-1 protein expression
[2]
  toxic effects of glutamate in astroglia/neuron combined cultures: blocked the toxic effects of glutamate; also recorded: reinstates the effects of UA in reducing glutamate toxicity
EAAT-2
  EAAT-2 protein expression normalized to actin: not altered
[3]; UA 100 or 200 μM
  effect of UA itself on neuron survival: no effect on neuron survival
[3]; UA 100 or 200 μM with and after glutamate (10 or 500 μM, 1 hour)
  protection against glutamate toxicity: did not show any protection against glutamate toxicity; also recorded: did not alter the neuron loss; also recorded: did not protect spinal cord neurons against glutamate toxicity; also recorded: does not decrease glutamate toxicity
[4]
  carbon dioxide binding with peroxynitrite, times faster than UA: 920 times
Spinal cord injury
  secondary damage: reduced secondary damage
[5]
  peroxynitrite toxicity: blocked peroxynitrite toxicity

## N[C@@H](CCC(=O)O)C(=O)O [glutamate]
Spinal cord neurons; glutamate 500 μM and 1 mM, 1 hour, mixed cultures, fixed 24 hours later
  neurons that did not survive: approximately 40%
Spinal cord neurons; mixed cultures, 1 hour
  glutamate-elicited neuronal cell death, dose dependence: increased in a dose-dependent manner
Spinal cord neurons; mixed cultures, 1 hour, listed as Glutamate
  glutamate-elicited neuronal cell death, dose dependence: induces loss of spinal cord neurons in a dose-dependent manner
[3]; glutamate 10 μM
  neuron loss: more than 80%
[3]; glutamate 500 μM
  neuron loss: essentially eliminated all neurons; also recorded: almost total neuron elimination
[3]; glutamate 1 hour
  cell loss, dose dependence: dose-dependent cell loss
